From patent US5162320A, “1,4-bis(alkylamino)-2,3-diaza-anthracene-9,10-diones” (Boehringer Biochemia Robin S.p.A., priority 1989, dated 1992)
Where two headings read alike, the source gives them in different places.

Columns and labels:
[1] = tested on: human melanoma xenographt; assay: M.T.T. assay in vitro, human melanoma; type: cell-based
Experimental: (§1) The antitumor activity of compounds of the present invention was evaluated by "in vitro" M.T.T. assay (T. Mosmann, J. Immunol. Meth. 65 : 55-63, 1983) on human tumor cell lines. M.T.T. assay was chosen according to N.C.I. screening program for new anticancer drugs (Ad hoc review committee proceedings for N.C.I. "in vitro"--"in vivo" Disease oriented Screening project. N.I.H., Bethesda, Md. Dec.8-9, 1986).

[2] = tested on: human colon adenocarcinoma; assay: M.T.T. assay in vitro, human colon adenocarcinoma; type: cell-based; settings: human colon adenocarcinoma xenographt, read-out: ID50 (the source's name)
Experimental: as §1

[3] = tested on: human cervix epithelioid carcinoma cell line; assay: M.T.T. assay in vitro, human cervix epithelioid carcinoma; type: cell-based
Experimental: as §1
Against the same human cervix epithelioid carcinoma cell line the compounds (1) and (2) show ID50 of 1×10^-9 M and 2×10^-10 M, respectively.

[4] = human, in vivo; cited from earlier work
[5] = intraperitoneal, non-tumor bearing animals; cited from earlier work
[6] = human melanoma xenographt, M.T.T. assay, read-out: ID50 (the source's name)
[7] = human cervix epithelioid carcinoma, in vitro, read-out: ID50 (the source's name)
[8] = human cervix epithelioid carcinoma

IC50 [1, 6] | IC50 [2] | IC50 [3, 7] | Structure (SMILES) | cardiotoxicity [4] | further results
500000 nM |  |  | OCCCNc1nnc(NCCCO)c2cc3ccccc3cc12 [1,4-bis[N-(3-hydroxypropyl)amino]-2,3-diaza-anthracene] |  | 
1 nM | 10 nM | 1 nM | CN(C)CCNc1nnc(NCCN(C)C)c2c1C(=O)c1ccccc1C2=O [Compound 1, 1,4-bis[N-(2-dimethylaminoethyl)amino]-2,3-diaza-anthracene-9,10-dione] |  | 
0.1 nM | 1 nM | 0.2 nM | CN(C)CCNc1nnc(N)c2c1C(=O)c1ccccc1C2=O [Compound 2, 1-[N-(2-dimethylaminoethyl)amino]-4-amino-2,3-diaza-anthracene9,10-dione] |  | 
2 nM |  |  | O=C1c2ccccc2C(=O)c2c(NCCCO)nnc(NCCCO)c21 [Compound 3, 1,4-bis[N-(3-hydroxypropyl)amino]-2,3-diaza-anthracene-9,10-dione] |  | 
1 nM |  |  | Nc1nnc(NCCCO)c2c1C(=O)c1ccccc1C2=O [Compound 4, 1-[N-(3-hydroxypropyl)amino]-4-amino-2,3-diaza-anthracene-9,10-dione] |  | 
 |  | 3 nM | Nc1nnc(NCCNCCO)c2c1C(=O)c1ccccc1C2=O [Compound 5, 1-[N-(2-(2-hydroxyethylamino)ethyl)amino]-4-amino-2,3-diaza-anthracene-9,10-dione] |  | activity compared with ametantrone [3, 8]: definitely more active than ametantrone; activity compared with mitoxantrone [3, 8]: as active as mitoxantrone
 |  |  | O=C1c2ccccc2C(=O)c2c(NCCNCCO)ccc(NCCNCCO)c21 [ametantrone, 1,4-bis[(2-(2-hydroxyethylamino)ethyl)amino]anthracene-9,10-dione] | some cardiotoxicity | IC50 ([1]; Homo sapiens, read-out: ID50): 20000 nM; IC50 ([3]; Homo sapiens, read-out: ID50): 50000 nM; delayed lethality [5]: not observed
 |  |  | COc1cccc2c1C(=O)c1c(O)c3c(c(O)c1C2=O)C[C@@](O)(C(=O)CO)C[C@@H]3O[C@H]1C[C@H](N)[C@H](O)[C@H](C)O1 [doxorubicin] | severe dose-related cardiotoxicity | toxic side effects [4]: nausea, vomiting and alopecia

Structure (SMILES) | IC50 [1, 6] | IC50 [2] | IC50 [3, 7] | cardiotoxicity [4] | further results
O=C1c2c(O)ccc(O)c2C(=O)c2c(NCCNCCO)ccc(NCCNCCO)c21 [mitoxantrone, 5,8-dihydroxy-1,4-bis[(2-(2-hydroxyethylamino)ethyl)amino]anthracene-9,10-dione] | 1 nM | 100 nM | 5 nM | some clinical cardiotoxicity | major hematological toxicities [4]: leukopenia, neutropenia and bone marrow aplasia; toxic side effects [4]: by far lower than those resulting from doxorubicin; delayed lethality [5]: a delayed lethality
